Laboratory results published in patent EP0349354A1, “Peptides PF10 to PF19 from a retro virus HIV, method for the synthesis of these peptides and their use, particularly in diagnostics” (INSTITUT PASTEUR, priority 1988, dated 1990).

Tested on: anticorps anti-nef
Assay: ELISA for detection of anti-nef antibodies on coated peptides or nef
Format: binding, humain
Conditions: for nombre de sérums anti-nef positifs ayant réagi: out of 31 anti-nef positive sera; for intensité de l'immunoréactivité (OD), Serum 1: Serum 1, anti-nef positive; for intensité de l'immunoréactivité (OD), Serum 1 / intensité de l'immunoréactivité (OD), Serum 2 / intensité de l'immunoréactivité (OD), Serum 3 / intensité de l'immunoréactivité (OD), Serum 4 / intensité de l'immunoréactivité (OD), Serum 5 / intensité de l'immunoréactivité (OD), Serum 6 / intensité de l'immunoréactivité (OD), Serum 7 / intensité de l'immunoréactivité (OD), Serum 8 / intensité de l'immunoréactivité (OD), Serum 9 / intensité de l'immunoréactivité (OD), Serum 10 / intensité de l'immunoréactivité (OD), Serum 11 / intensité de l'immunoréactivité (OD), Serum 12 / intensité de l'immunoréactivité (OD), Serum 13 / intensité de l'immunoréactivité (OD), Serum 14 / intensité de l'immunoréactivité (OD), Serum 15 / intensité de l'immunoréactivité (OD), Serum 16 / intensité de l'immunoréactivité (OD), Serum 17 / intensité de l'immunoréactivité (OD), Serum 18 / intensité de l'immunoréactivité (OD), Serum 19 / intensité de l'immunoréactivité (OD), Serum 20 / intensité de l'immunoréactivité (OD), Serum 21 / intensité de l'immunoréactivité (OD), Serum 22 / intensité de l'immunoréactivité (OD), Serum 23 / intensité de l'immunoréactivité (OD), Serum 24 / intensité de l'immunoréactivité (OD), Serum 25 / intensité de l'immunoréactivité (OD), Serum 26 / intensité de l'immunoréactivité (OD), Serum 27 / intensité de l'immunoréactivité (OD), Serum 28 / intensité de l'immunoréactivité (OD), Serum 29 / intensité de l'immunoréactivité (OD), Serum 30 / intensité de l'immunoréactivité (OD), Serum 31 / intensité de l'immunoréactivité (OD), Serum 32 / intensité de l'immunoréactivité (OD), Serum 33: 500 ng coated per well; for intensité de l'immunoréactivité (OD), Serum 2: Serum 2, anti-nef positive; for intensité de l'immunoréactivité (OD), Serum 3: Serum 3, anti-nef positive; for intensité de l'immunoréactivité (OD), Serum 4: Serum 4, anti-nef positive; for intensité de l'immunoréactivité (OD), Serum 5: Serum 5, anti-nef positive; for intensité de l'immunoréactivité (OD), Serum 6: Serum 6, anti-nef positive; for intensité de l'immunoréactivité (OD), Serum 7: Serum 7, anti-nef positive; for intensité de l'immunoréactivité (OD), Serum 8: Serum 8, anti-nef positive; for intensité de l'immunoréactivité (OD), Serum 9: Serum 9, anti-nef positive; for intensité de l'immunoréactivité (OD), Serum 10: Serum 10, anti-nef positive; for intensité de l'immunoréactivité (OD), Serum 11: Serum 11, anti-nef positive; for intensité de l'immunoréactivité (OD), Serum 12: Serum 12, anti-nef positive; for intensité de l'immunoréactivité (OD), Serum 13: Serum 13, anti-nef positive; for intensité de l'immunoréactivité (OD), Serum 14: Serum 14, anti-nef positive; for intensité de l'immunoréactivité (OD), Serum 15: Serum 15, anti-nef positive; for intensité de l'immunoréactivité (OD), Serum 16: Serum 16, anti-nef positive; for intensité de l'immunoréactivité (OD), Serum 17: Serum 17, anti-nef positive; for intensité de l'immunoréactivité (OD), Serum 18: Serum 18, anti-nef positive; for intensité de l'immunoréactivité (OD), Serum 19: Serum 19, anti-nef positive; for intensité de l'immunoréactivité (OD), Serum 20: Serum 20, anti-nef positive; for intensité de l'immunoréactivité (OD), Serum 21: Serum 21, anti-nef positive; for intensité de l'immunoréactivité (OD), Serum 22: Serum 22, anti-nef positive; for intensité de l'immunoréactivité (OD), Serum 23: Serum 23, anti-nef positive; for intensité de l'immunoréactivité (OD), Serum 24: Serum 24, anti-nef positive; for intensité de l'immunoréactivité (OD), Serum 25: Serum 25, anti-nef positive; for intensité de l'immunoréactivité (OD), Serum 26: Serum 26, anti-nef positive; for intensité de l'immunoréactivité (OD), Serum 27: Serum 27, anti-nef positive; for intensité de l'immunoréactivité (OD), Serum 28: Serum 28, anti-nef positive; for intensité de l'immunoréactivité (OD), Serum 29: Serum 29, anti-nef positive; for intensité de l'immunoréactivité (OD), Serum 30: Serum 30, anti-nef positive; for intensité de l'immunoréactivité (OD), Serum 31: Serum 31, anti-nef positive; for intensité de l'immunoréactivité (OD), Serum 32: Serum 32, anti-nef negative control serum; for intensité de l'immunoréactivité (OD), Serum 33: Serum 33, anti-nef negative control serum
Procedure: Des plaques de microtitration à 96 puits ont été recouvertes une nuit avec 500 ng de protéine nef bactérienne, à 37°C ou avec 500 ng de peptides synthétiques par puits dans 50µl de PBS à pH 7,4. Après saturation avec 400 µl de PBS pH 7,4, contenant 5% de caséine, durant 1 heure à 37°C et lavage avec PBS à pH 7,4, 0,5% de BSA, 0,01% tween, 50 µl de sérums à différentes dilutions ont été ajoutés pendant 2 heures à 37°C. Après le rinçage, 50µl de complexes d'IgG de souris anti-humaine-(H + L)-peroxydase 1:1000 ont été incubés pendant 1 heure à 37°C. Après un nouveau rinçage, 100µl de OPD ont été ajoutés pendant 30mn à température ambiante dans l'obscurité. La réaction de l'enzyme a été arrêtée par addition de 50µl d'acide sulfurique 4N et la densité optique des plaques a été lue à 492 nm/620 nm. Les plaques recouvertes avec la caséine ont été utilisées comme contrôle négatif.
En vue d'étudier la possibilité d'utiliser des peptides synthétiques en tant qu'antigènes pour la détection d'anticorps anti-nef chez des patients infectés par HIV, 8 peptides synthétiques couvrant la totalité de la séquence de la protéine nef de HIV-1 (figure 4) ont été utilisés dans un test ELISA avec 31 sérums anti-nef positifs et 2 sérums anti-nef négatifs utilisés comme contrôle. Les recombinants nef ont été utilisés comme contrôle positif dans les tests ELISA et la caséine a été utilisée comme contrôle négatif. Les résultats de ces expériences sont donnés dans le tableau 4 qui illustre l'essai suivant: Essai ELISA sur 31 sérums anti-nef-positifs et 2 sérums anti-nef- négatifs, soit pré-recouverts avec des peptides synthétiques (PF 11 à PF 18), soit en utilisant nef, la caséine ou un mélange de peptides PF 12 et PF 17. Les sérums ont été sélectionnés au hasard parmi des sérums anti-nef positifs et anti-nefs négatifs testés par la méthode RIA en utilisant ¹²⁵I nef. L'intensité de l'immunoradioactivité est notée "-" pour une densité optique (OD) inférieure à 0,2; "+" pour OD = 0,2 à 0,4; "++" pour OD = 0,4 à 0,8 et "+++" pour OD = 0,8 à 2,0.

Sequence | nombre de sérums anti-nef positifs ayant réagi (ELISA) | intensité de l'immunoréactivité (OD), Serum 1 | intensité de l'immunoréactivité (OD), Serum 2 | intensité de l'immunoréactivité (OD), Serum 3 | intensité de l'immunoréactivité (OD), Serum 4 | intensité de l'immunoréactivité (OD), Serum 5 | intensité de l'immunoréactivité (OD), Serum 6 | intensité de l'immunoréactivité (OD), Serum 7 | intensité de l'immunoréactivité (OD), Serum 8 | intensité de l'immunoréactivité (OD), Serum 9 | intensité de l'immunoréactivité (OD), Serum 10 | intensité de l'immunoréactivité (OD), Serum 11 | intensité de l'immunoréactivité (OD), Serum 12 | intensité de l'immunoréactivité (OD), Serum 13 | intensité de l'immunoréactivité (OD), Serum 14 | intensité de l'immunoréactivité (OD), Serum 15 | intensité de l'immunoréactivité (OD), Serum 16 | intensité de l'immunoréactivité (OD), Serum 17 | intensité de l'immunoréactivité (OD), Serum 18 | intensité de l'immunoréactivité (OD), Serum 19 | also measured
XCGYFPDWQNYTPGPGVRYPLTFGWCYKLVPVEPDKVEEANKGENTSLL HPVZ [PF15, protéine F HIV-1, séquence 118-167] | 4 | - (pour une densité optique (OD) inférieure à 0,2) | - (pour une densité optique (OD) inférieure à 0,2) | - (pour une densité optique (OD) inférieure à 0,2) | - (pour une densité optique (OD) inférieure à 0,2) | + (pour OD = 0,2 à 0,4) | + (pour OD = 0,2 à 0,4) | - (pour une densité optique (OD) inférieure à 0,2) | - (pour une densité optique (OD) inférieure à 0,2) | - (pour une densité optique (OD) inférieure à 0,2) | - (pour une densité optique (OD) inférieure à 0,2) | - (pour une densité optique (OD) inférieure à 0,2) | - (pour une densité optique (OD) inférieure à 0,2) | - (pour une densité optique (OD) inférieure à 0,2) | - (pour une densité optique (OD) inférieure à 0,2) | - (pour une densité optique (OD) inférieure à 0,2) | - (pour une densité optique (OD) inférieure à 0,2) | - (pour une densité optique (OD) inférieure à 0,2) | - (pour une densité optique (OD) inférieure à 0,2) | ++ (pour OD = 0,4 à 0,8) | intensité de l'immunoréactivité (OD), Serum 20: - (pour une densité optique (OD) inférieure à 0,2); intensité de l'immunoréactivité (OD), Serum 21: - (pour une densité optique (OD) inférieure à 0,2); intensité de l'immunoréactivité (OD), Serum 22: ++ (pour OD = 0,4 à 0,8); intensité de l'immunoréactivité (OD), Serum 23: - (pour une densité optique (OD) inférieure à 0,2); intensité de l'immunoréactivité (OD), Serum 24: - (pour une densité optique (OD) inférieure à 0,2); intensité de l'immunoréactivité (OD), Serum 25: - (pour une densité optique (OD) inférieure à 0,2); intensité de l'immunoréactivité (OD), Serum 26: - (pour une densité optique (OD) inférieure à 0,2); intensité de l'immunoréactivité (OD), Serum 27: - (pour une densité optique (OD) inférieure à 0,2); intensité de l'immunoréactivité (OD), Serum 28: - (pour une densité optique (OD) inférieure à 0,2); intensité de l'immunoréactivité (OD), Serum 29: - (pour une densité optique (OD) inférieure à 0,2); intensité de l'immunoréactivité (OD), Serum 30: - (pour une densité optique (OD) inférieure à 0,2); intensité de l'immunoréactivité (OD), Serum 31: - (pour une densité optique (OD) inférieure à 0,2); intensité de l'immunoréactivité (OD), Serum 32: - (pour une densité optique (OD) inférieure à 0,2); intensité de l'immunoréactivité (OD), Serum 33: - (pour une densité optique (OD) inférieure à 0,2)
XCKGGLEGLIHSQRRQDILDLWIYHTQGYFPDZ [PF18] | 10 | - (pour une densité optique (OD) inférieure à 0,2) | - (pour une densité optique (OD) inférieure à 0,2) | - (pour une densité optique (OD) inférieure à 0,2) | - (pour une densité optique (OD) inférieure à 0,2) | + (pour OD = 0,2 à 0,4) | + (pour OD = 0,2 à 0,4) | - (pour une densité optique (OD) inférieure à 0,2) | - (pour une densité optique (OD) inférieure à 0,2) | - (pour une densité optique (OD) inférieure à 0,2) | - (pour une densité optique (OD) inférieure à 0,2) | - (pour une densité optique (OD) inférieure à 0,2) | - (pour une densité optique (OD) inférieure à 0,2) | - (pour une densité optique (OD) inférieure à 0,2) | - (pour une densité optique (OD) inférieure à 0,2) | - (pour une densité optique (OD) inférieure à 0,2) | - (pour une densité optique (OD) inférieure à 0,2) | - (pour une densité optique (OD) inférieure à 0,2) | ++ (pour OD = 0,4 à 0,8) | + (pour OD = 0,2 à 0,4) | part des sérums anti-nef positifs avec immunoréactivité significative (ELISA, 31 anti-nef positive sera): 1/3; intensité de l'immunoréactivité (OD), Serum 20: + (pour OD = 0,2 à 0,4); intensité de l'immunoréactivité (OD), Serum 21: +++ (pour OD = 0,8 à 2,0); intensité de l'immunoréactivité (OD), Serum 22: +++ (pour OD = 0,8 à 2,0); intensité de l'immunoréactivité (OD), Serum 23: - (pour une densité optique (OD) inférieure à 0,2); intensité de l'immunoréactivité (OD), Serum 24: ++ (pour OD = 0,4 à 0,8); intensité de l'immunoréactivité (OD), Serum 25: + (pour OD = 0,2 à 0,4); intensité de l'immunoréactivité (OD), Serum 26: - (pour une densité optique (OD) inférieure à 0,2); intensité de l'immunoréactivité (OD), Serum 27: - (pour une densité optique (OD) inférieure à 0,2); intensité de l'immunoréactivité (OD), Serum 28: - (pour une densité optique (OD) inférieure à 0,2); intensité de l'immunoréactivité (OD), Serum 29: - (pour une densité optique (OD) inférieure à 0,2); intensité de l'immunoréactivité (OD), Serum 30: +++ (pour OD = 0,8 à 2,0); intensité de l'immunoréactivité (OD), Serum 31: - (pour une densité optique (OD) inférieure à 0,2); intensité de l'immunoréactivité (OD), Serum 32: - (pour une densité optique (OD) inférieure à 0,2); intensité de l'immunoréactivité (OD), Serum 33: - (pour une densité optique (OD) inférieure à 0,2)
